Measurements: ChEMBL document CHEMBL3822435, “Synthesis, antiproliferative and pro-apoptotic activity of 2-phenylindoles” (Bioorg Med Chem, 2016)
Calls of active or inactive are those of the source. The calls are words filed in the database; no cut-off is given here.

Tests used:
MCF7 [1] = assay: cells; settings: Homo sapiens, MCF7, 72 h
Description: Antiproliferative activity against ER-positive human MCF7 cells assessed as reduction in cell viability measured after 72 hrs by AlamarBlue assay

Estrogen receptor = molecular target: T1, Estrogen receptor (Homo sapiens, UniProt P03372)
T1 sequence (P03372 whole entry): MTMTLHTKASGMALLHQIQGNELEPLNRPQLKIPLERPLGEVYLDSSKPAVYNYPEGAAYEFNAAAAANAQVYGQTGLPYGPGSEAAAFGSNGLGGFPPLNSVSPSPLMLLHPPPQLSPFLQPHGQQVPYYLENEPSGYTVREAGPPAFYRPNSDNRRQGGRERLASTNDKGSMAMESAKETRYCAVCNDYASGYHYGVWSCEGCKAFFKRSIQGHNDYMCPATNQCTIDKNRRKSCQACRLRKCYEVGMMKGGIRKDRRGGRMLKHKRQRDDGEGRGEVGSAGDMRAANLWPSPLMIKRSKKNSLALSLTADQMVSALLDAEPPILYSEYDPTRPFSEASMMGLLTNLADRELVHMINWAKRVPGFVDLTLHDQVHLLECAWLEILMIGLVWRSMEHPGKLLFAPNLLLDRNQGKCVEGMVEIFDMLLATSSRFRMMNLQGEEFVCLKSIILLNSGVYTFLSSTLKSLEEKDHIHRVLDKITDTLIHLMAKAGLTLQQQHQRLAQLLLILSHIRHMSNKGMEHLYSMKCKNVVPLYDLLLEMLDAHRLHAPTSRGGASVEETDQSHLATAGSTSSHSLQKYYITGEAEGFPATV
Description: Inhibition of ER-alpha (unknown origin) by Lanthascreen-FRET assay

MCF7 [2] = assay: Induction of apoptosis in human MCF7 cells assessed as accumulation at G2/M-phase at 10 uM measured after 72 hrs by propidium iodide staining-based flow cytometric analysis; type: functional, cell-based
Estrogen receptor beta = Estrogen receptor beta (Homo sapiens, UniProt Q92731)
Description: Inhibition of ER-beta (unknown origin) by Lanthascreen-FRET assay

PBMC [3] = assay: Induction of apoptosis in human PBMCs assessed as apoptotic cells at 10 uM measured after 72 hrs by propidium iodide staining-based flow cytometric analysis (reference value: 1.5 +/- 0.6%); type: cell-based
PBMC [4] = assay: Induction of apoptosis in human PBMCs assessed as accumulation at G2/M-phase at 10 uM measured after 72 hrs by propidium iodide staining-based flow cytometric analysis; type: cell-based
MCF7 [5] = assay: Induction of apoptosis in human MCF7 cells assessed as apoptotic cells at 10 uM measured after 72 hrs by propidium iodide staining-based flow cytometric analysis (reference value: 5.5 +/- 1.3%); type: functional

Sequence of Estrogen receptor beta (Q92731 whole entry): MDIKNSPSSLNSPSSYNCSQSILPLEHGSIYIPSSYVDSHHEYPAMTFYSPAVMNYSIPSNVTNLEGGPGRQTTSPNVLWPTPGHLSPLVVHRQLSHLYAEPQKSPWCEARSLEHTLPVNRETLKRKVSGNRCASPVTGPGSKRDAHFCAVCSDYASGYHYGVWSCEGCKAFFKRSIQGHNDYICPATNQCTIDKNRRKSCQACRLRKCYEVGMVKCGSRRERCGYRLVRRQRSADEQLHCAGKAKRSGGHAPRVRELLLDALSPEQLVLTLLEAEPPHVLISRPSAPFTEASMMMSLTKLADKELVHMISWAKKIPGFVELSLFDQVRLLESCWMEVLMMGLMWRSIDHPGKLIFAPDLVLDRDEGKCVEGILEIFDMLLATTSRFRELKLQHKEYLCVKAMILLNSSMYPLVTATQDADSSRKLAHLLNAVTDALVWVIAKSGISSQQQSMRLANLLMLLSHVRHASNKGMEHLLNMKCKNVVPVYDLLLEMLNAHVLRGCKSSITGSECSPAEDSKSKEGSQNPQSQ

For `CNCCCCn1c(-c2ccc(O)cc2)c(C)c2cc(O)ccc21`, which IC50 (MCF7 [1]) is on record?
Its IC50 is 40.7 µM.

For `Cc1c(-c2ccc(O)cc2)n(CCCCCCCCCCCCn2c(-c3ccc(O)cc3)c(C)c3cc(O)ccc32)c2ccc(O)cc12`, which IC50 (MCF7 [1]) is on record?
Its IC50 is 5.24 µM.

For `COc1ccc(-c2c(C)c3cc(OC)ccc3n2CCCCN(C)C(=O)/C(=C/c2ccc(OC)c(O)c2)c2cc(OC)c(OC)c(OC)c2)cc1`, which IC50 (MCF7 [1]) is on record?
The IC50 was 81.3 µM.

Which IC50 (Estrogen receptor) does the source give for `COc1ccc(/C=C(/C(=O)N(C)CCCCCCCCCCCCn2c(-c3ccc(O)cc3)c(C)c3cc(O)ccc32)c2cc(OC)c(OC)c(OC)c2)cc1O` here?
The IC50 was 0.574 µM.

And the Activity (MCF7 [2])?
The Activity was “inactive”.

And the IC50 (Estrogen receptor beta)?
The IC50 was 0.155 µM.

And the IC50 (MCF7 [1])?
Its IC50 is 1.86 µM.

What about the Activity (PBMC [3]) of the same compound?
Its Activity is “Non-toxic”.

And the Activity (PBMC [4])?
Its Activity is “Non-toxic”.

What about the Activity (MCF7 [5]) of the same compound?
The Activity was 42.1%.

`COc1cc(Cn2c(-c3ccc(O)cc3)c(C)c3cc(O)ccc32)cc(OC)c1OC` was tested. Which IC50 (MCF7 [1]) did it give?
The IC50 was 332 µM.

Which IC50 (MCF7 [1]) does the source give for `Cc1c(-c2ccc(O)cc2)n(Cc2ccc(Cn3c(-c4ccc(O)cc4)c(C)c4cc(O)ccc43)cc2)c2ccc(O)cc12` here?
Its IC50 is 3.5 µM.

`COc1ccc(/C=C(/C(=O)N(C)CCCCCCn2c(-c3ccc(O)cc3)c(C)c3cc(O)ccc32)c2cc(OC)c(OC)c(OC)c2)cc1O` was tested. Which IC50 (MCF7 [1]) did it give?
The IC50 was 2.34 µM.

With `COc1ccc(/C=C(/C(=O)N(C)CCCCn2c(-c3ccc(O)cc3)c(C)c3cc(O)ccc32)c2cc(OC)c(OC)c(OC)c2)cc1O` as the compound, how does the IC50 (MCF7 [1]) read?
Its IC50 is 1.99 µM.

Which IC50 (MCF7 [1]) does the source give for `Cc1c(-c2ccc(O)cc2)n(CCO)c2ccc(O)cc12` here?
The IC50 was 17.7 µM.

With `CNCCCCCCCCn1c(-c2ccc(O)cc2)c(C)c2cc(O)ccc21` as the compound, how does the IC50 (MCF7 [1]) read?
Its IC50 is 38.9 µM.

How did the IC50 (MCF7 [1]) turn out when `Cc1c(-c2ccc(O)cc2)n(Cc2ccc(O)cc2)c2ccc(O)cc12` was run?
The IC50 was 38.9 µM.

How did the IC50 (MCF7 [1]) turn out when `CNCCCCCCn1c(-c2ccc(O)cc2)c(C)c2cc(O)ccc21` was run?
Its IC50 is 41.7 µM.

How did the IC50 (MCF7 [1]) turn out when `COc1ccc(/C=C(/C(=O)N(C)CCCCCCCCn2c(-c3ccc(O)cc3)c(C)c3cc(O)ccc32)c2cc(OC)c(OC)c(OC)c2)cc1O` was run?
Its IC50 is 2.95 µM.

With `CNCCCCCn1c(-c2ccc(O)cc2)c(C)c2cc(O)ccc21` as the compound, how does the IC50 (MCF7 [1]) read?
Its IC50 is 49 µM.

How did the IC50 (MCF7 [1]) turn out when `Cc1c(-c2ccc(O)cc2)n(CCCCCCn2c(-c3ccc(O)cc3)c(C)c3cc(O)ccc32)c2ccc(O)cc12` was run?
The IC50 was 8.16 µM.

With `COc1ccc(/C=C(/C(=O)N(C)CCCCCn2c(-c3ccc(O)cc3)c(C)c3cc(O)ccc32)c2cc(OC)c(OC)c(OC)c2)cc1O` as the compound, how does the IC50 (MCF7 [1]) read?
The IC50 was 2.93 µM.

Which IC50 (Estrogen receptor) does the source give for `CNCCCCCCCCCCCCn1c(-c2ccc(O)cc2)c(C)c2cc(O)ccc21` here?
Its IC50 is 0.38 µM.

What about the Activity (MCF7 [2]) of the same compound?
Its Activity is “inactive”.

What about the IC50 (Estrogen receptor beta) of the same compound?
Its IC50 is 1.66 µM.

What about the IC50 (MCF7 [1]) of the same compound?
Its IC50 is 33 µM.

And the Activity (PBMC [3])?
Its Activity is “Non-toxic”.

And the Activity (PBMC [4])?
The Activity was “Non-toxic”.

What about the Activity (MCF7 [5]) of the same compound?
The Activity was 7.5%.

`Cc1c(-c2ccc(O)cc2)n(Cc2ccc(F)cc2)c2ccc(O)cc12` was tested. Which IC50 (MCF7 [1]) did it give?
The IC50 was 41 µM.

For `Cc1c(-c2ccc(O)cc2)n(CCCCn2c(-c3ccc(O)cc3)c(C)c3cc(O)ccc32)c2ccc(O)cc12`, which IC50 (Estrogen receptor) is on record?
Its IC50 is 0.436 µM.

And the Activity (MCF7 [2])?
The Activity was “inactive”.

And the IC50 (Estrogen receptor beta)?
Its IC50 is 0.041 µM.

What about the IC50 (MCF7 [1]) of the same compound?
Its IC50 is 2.75 µM.

And the Activity (PBMC [3])?
The Activity was 16.7%.

And the Activity (PBMC [4])?
Its Activity is “Non-toxic”.

And the Activity (MCF7 [5])?
The Activity was 54.7%.

For `Cc1c(-c2ccc(O)cc2)n(CCCCCn2c(-c3ccc(O)cc3)c(C)c3cc(O)ccc32)c2ccc(O)cc12`, which IC50 (MCF7 [1]) is on record?
Its IC50 is 4.16 µM.

For `Cc1c(-c2ccc(O)cc2)n(CCCCCCCCn2c(-c3ccc(O)cc3)c(C)c3cc(O)ccc32)c2ccc(O)cc12`, which IC50 (MCF7 [1]) is on record?
The IC50 was 6.6 µM.

With `CCCCn1c(-c2ccc(O)cc2)c(C)c2cc(O)ccc21` as the compound, how does the IC50 (MCF7 [1]) read?
Its IC50 is 34 µM.
